Data as given in a melting point compilation (Tetko et al.; mined from patent text by program, amines drawn as free bases though some values may be those of a salt).

For `CC(=Cc1ccc(C(=O)O)cc1)c1ccc2c(c1)SCCC2(C)C`, which melting point is on record?
The melting point was 255 to 257 °C.

With `O=c1cc2c(nn1Cc1ccc(Cl)cc1)-c1ccccc1S(=O)CC2` (stereo unspecified) as the compound, how does the melting point read?
The melting point was 207 to 209 °C.

With `Cc1noc(-c2cn(-c3cccc(-c4ccccc4OC(F)(F)F)c3)cn2)n1` as the compound, how does the melting point read?
The melting point was 142 to 144 °C.

For `COc1cccc2c(COCCC(c3ccccc3)c3ccccc3)coc12`, which melting point is on record?
Its melting point is 147 to 149 °C.

Which melting point does the source give for `FC(F)(F)c1cccc(CSc2nnc(-c3ccc4ncsc4c3)o2)c1` here?
Its melting point is 112 to 113 °C.

Which melting point does the source give for `CN(Cc1cccc2c1CN(C1CCC(=O)NC1=O)C2=O)C(=O)Nc1ccc(Cl)c(Cl)c1` (stereo unspecified) here?
The melting point was 275 to 277 °C.

Which melting point does the source give for `CC(C(=O)NC1CCCCC1)N1CCN(c2ccccn2)CC1` (stereo unspecified) here?
Its melting point is 126 to 128 °C.

Which melting point does the source give for `C=CCNC(=O)Nc1ccc([N+](=O)[O-])cc1O` here?
Its melting point is 135 to 136 °C.

With `O=C(O)C1=Cc2ccccc2OC1C(F)(F)F` (stereo unspecified) as the compound, how does the melting point read?
Its melting point is 152 to 153 °C.

With `OCc1ccc(-c2cccnc2)s1` as the compound, how does the melting point read?
Its melting point is 89 to 90 °C.

For `COCc1nc2c(C(=O)c3cccnc3Oc3cccc(Cl)c3)ccc(OC)c2[nH]1`, which melting point is on record?
The melting point was 181 to 183 °C.

With `CCCn1nnn(-c2ccc([N+](=O)[O-])cc2)c1=O` as the compound, how does the melting point read?
Its melting point is 91.1 °C.

Which melting point does the source give for `COc1cc(Nc2nc3cccc(-c4ccc(NC(C)=O)cc4)c3o2)cc(OC)c1OC` here?
Its melting point is 265 to 270 °C.

With `CC(=O)O[C@@H]1OCC[C@@H]1NC(=O)[C@H](CC(C)C)NC(=O)[C@H](CC(C)C)NC(=O)OCc1ccccc1` as the compound, how does the melting point read?
Its melting point is 175 to 176 °C.

With `Cc1c(NC(=O)c2ccc(-c3ccc(OC(F)(F)F)cc3)cc2F)ccc2cc(CN3CCCC3)cnc12` as the compound, how does the melting point read?
The melting point was 175 to 178 °C.

Which melting point does the source give for `O=C1CC2OC(CS(=O)Cc3ccccc3)CN12` (racemic) here?
Its melting point is 80.5 to 94.5 °C.

Which melting point does the source give for `COC(=O)c1cc(-c2c(OC)cccc2OC)n(-c2cc(C(=O)O)ccc2C)n1` here?
The melting point was 189 °C.

With `O=C(O)Cc1c(C(=O)c2ccccc2)[nH]c2cccc(Cl)c12` as the compound, how does the melting point read?
The melting point was 206 to 209 °C.

With `CNC1=NS(=O)(=O)N=C1NCCSCc1ccc(CN(C)C)s1` as the compound, how does the melting point read?
The melting point was 60.5 to 66 °C.

Which melting point does the source give for `O=C(O)CCOc1cccc(F)c1` here?
Its melting point is 90 to 91 °C.

With `COc1ccc(-c2[nH]nc3c2CCc2ccccc2-3)cc1` as the compound, how does the melting point read?
Its melting point is 161 to 163 °C.

For `O=C1N=c2ccc(OCCN3CC=C(Cc4ccccc4)CC3)cc2=N1`, which melting point is on record?
The melting point was 202 to 203 °C.

Which melting point does the source give for `C=CCOc1ccc2c(=O)c3ccccc3oc2c1C(=O)C=Cc1ccccc1` here?
Its melting point is 150 to 152 °C.

Which melting point does the source give for `COc1cc(C(=O)N2Cc3ccc(C(=O)NCc4ccccc4C(F)(F)F)n3Cc3ccccc32)ccc1-c1ccccc1C` here?
Its melting point is 165 to 167 °C.

For `CC(C)(C)OC(=O)c1ccc(O)c(Br)c1`, which melting point is on record?
Its melting point is 106 to 108 °C.

With `CCN1CC=C(CC(=O)NC2(c3ccc(C(F)(F)F)cc3)C(=O)Nc3cc(Cl)cc(Cl)c32)CC1` (single isomer, unassigned; (+)) as the compound, how does the melting point read?
The melting point was 155 to 156 °C.

For `c1cn(Cc2ccc(OCc3nnn[nH]3)cc2)cn1`, which melting point is on record?
Its melting point is 189 to 191 °C.

With `C[C@H]1CCCC(C)(C)[C@@H]1[C@H](O)c1ccc(F)cc1` as the compound, how does the melting point read?
The melting point was 55 to 57 °C.

Which melting point does the source give for `Cc1cc2c(nc(C)n2-c2ccc(C#N)cc2)c(C)n1` here?
Its melting point is 260 to 262 °C.

Which melting point does the source give for `CCCC#CCn1ncc(-c2ccc(S(C)(=O)=O)cc2)c(-c2ccc(F)cc2)c1=O` here?
The melting point was 79 to 80 °C.

For `CCCN(c1ccncc1)N1C(=O)C(C)(C)c2ccccc21`, which melting point is on record?
Its melting point is 125 to 127 °C.

Which melting point does the source give for `CSCS[C@H](C)[C@](O)(Cn1cncn1)c1ccc(Cl)cc1` here?
The melting point was 163 to 164 °C.

Which melting point does the source give for `CS(=O)(=O)Nc1ccc(OC(=O)c2ccc(CCBr)cc2)cc1` here?
The melting point was 161 to 162 °C.

For `CCc1c2c(nn1CC)c(N)nc1ncccc12`, which melting point is on record?
The melting point was 286 to 288 °C.

Which melting point does the source give for `COC(=O)C1(CN=Cc2ccccc2)C=CC=CC1` (stereo unspecified) here?
Its melting point is 86 to 89 °C.

For `C=CCN(CC=C)c1nc(NC(=O)CC)n2oc(=O)nc2n1`, which melting point is on record?
The melting point was 157 to 159 °C.

For `CC1(CO)Cc2nnc(-c3ccc(-c4ccccc4)cc3Cl)n2CCS1` (stereo unspecified), which melting point is on record?
The melting point was 166 to 169 °C.

For `COc1ccc2c(c1)OC(CNCCCOc1cnc3ccccc3c1)CC2` (stereo unspecified), which melting point is on record?
The melting point was 132 to 134 °C.

With `COc1c(F)c(N)cc(F)c1F` as the compound, how does the melting point read?
Its melting point is 45 to 47 °C.

For `CC(C)(C)OC(=O)NC(Cc1ccccc1)C(=O)OC(Cc1c[nH]cn1)C(=O)O` (stereo unspecified), which melting point is on record?
The melting point was 130 to 131 °C.

With `Clc1nc(-c2ccco2)nc2ccccc12` as the compound, how does the melting point read?
The melting point was 116 to 118 °C.

With `CCC(C)c1cc(C=O)c(O)c(S(C)(=O)=O)c1` (stereo unspecified) as the compound, how does the melting point read?
The melting point was 68 to 70 °C.

With `NC(=NCC(F)(F)F)Nc1ccnc(OCCCc2ccccn2)n1` as the compound, how does the melting point read?
The melting point was 118 to 120 °C.

Which melting point does the source give for `CC1(C)C(=O)Nc2ccc(-c3cc(F)cc([N+](=O)[O-])c3)cc21` here?
Its melting point is 231 to 233 °C.

For `O=C(CC(=O)c1ccccc1)Nc1cc(Cl)c(Cl)cc1[N+](=O)[O-]`, which melting point is on record?
The melting point was 177 to 179 °C.

With `CC(C)(C)OC(=O)NCCNC(=O)c1ccc(Br)cn1` as the compound, how does the melting point read?
The melting point was 118 °C.

With `C1=CC2=Nc3ccccc3OCN2C=C1` as the compound, how does the melting point read?
The melting point was 125 to 127 °C.

With `CCCN(C(=S)NC(=O)c1ccccc1)C(CO)c1ccccc1` (stereo unspecified) as the compound, how does the melting point read?
Its melting point is 82 °C.

With `N#Cc1cc2c(Cl)ncnc2s1` as the compound, how does the melting point read?
The melting point was 185 to 190 °C.

For `O=C(CCN1CCN(Cc2ccccc2)CC1)c1ccc2[nH]c(=O)oc2c1`, which melting point is on record?
Its melting point is > 300 °C.

Which melting point does the source give for `CCOC(=O)c1nccc2c(C)c3c(cc12)c1cc(O)ccc1n3CC` here?
Its melting point is 260 °C.
